Results taken from article PMC3064895 (Cancer Chemotherapy and Pharmacology, 2010).
Read-outs that look alike come from different tables or passages of the source.

Columns and labels:
[1] = Plasma pharmacokinetics at steady state of sorafenib; assay type: in vivo, patients with advanced cancer; conditions: for AUC, geometric mean (% CV): AUC(0–12), n = 14; for AUC, geometric mean (% CV) / AUCnorm, geometric mean (% CV) / C max, geometric mean (% CV) / C max,norm, geometric mean (% CV) / C trough, geometric mean (% CV) / C trough,norm, geometric mean (% CV) / t max, median (range): plasma, sorafenib 400 mg bid; for AUC ratio (90% CI) / C max ratio (90% CI) / C trough ratio (90% CI): ratio of day 1 of cycle 5 versus day 1 of cycle 2
[2] = cited from earlier work
[3] = QT/QTc interval on 12-lead Holter ECG; assay type: in vivo, patients with advanced cancer; conditions: 2 h post-dose; oral 400-mg single dose, positive control, 1 day before cycle 1
[4] = cited from earlier work; for Patients with declines to <50 LVEF(%): Hutson et al.; for Mean change in LVEF(%): study by Chu et al.

**Q.** With `CNC(=O)c1cc(Oc2ccc(NC(=O)Nc3ccc(Cl)c(C(F)(F)F)c3)cc2)cc[n+]1[O-]` [BAY 67-3472] as the compound, how does the “AUC, geometric mean (% CV)” value ([1]; Day 1 of cycle 2) read?
**A.** Its value is 8.5 (58.3) mg h/L.

**Q.** What about the “AUC, geometric mean (% CV)” value ([1]; Day 1 of cycle 5) of the same compound?
**A.** Its value is 5.2 (98.7) mg h/L.

**Q.** And the “AUCnorm, geometric mean (% CV)” value ([1]; Day 1 of cycle 2)?
**A.** Its value is 1.4 (59.6) kg h/L.

**Q.** And the “C max, geometric mean (% CV)” value ([1]; Day 1 of cycle 2)?
**A.** Its value is 1.0 (66.8) mg/L.

**Q.** What about the “C max,norm, geometric mean (% CV)” value ([1]; Day 1 of cycle 2) of the same compound?
**A.** Its value is 0.2 (70.2) kg/L.

**Q.** And the “C trough, geometric mean (% CV)” value ([1]; Day 1 of cycle 2)?
**A.** Its value is 0.8 (81.1) mg/L.

**Q.** What about the “C trough,norm, geometric mean (% CV)” value ([1]; Day 1 of cycle 2) of the same compound?
**A.** The value was 0.1 (85.9) kg/L.

**Q.** What about the “t max, median (range)” value ([1]; Day 1 of cycle 2) of the same compound?
**A.** The value was 1.00 (0–12.00) h.

**Q.** What about the “AUCnorm, geometric mean (% CV)” value ([1]; Day 1 of cycle 5) of the same compound?
**A.** Its value is 0.9 (103.2) kg h/L.

**Q.** What about the “C max, geometric mean (% CV)” value ([1]; Day 1 of cycle 5) of the same compound?
**A.** The value was 0.6 (96.9) mg/L.

**Q.** What about the “C max,norm, geometric mean (% CV)” value ([1]; Day 1 of cycle 5) of the same compound?
**A.** The value was 0.1 (100.7) kg/L.

**Q.** And the “C trough, geometric mean (% CV)” value ([1]; Day 1 of cycle 5)?
**A.** The value was 0.5 (109.4) mg/L.

**Q.** And the “C trough,norm, geometric mean (% CV)” value ([1]; Day 1 of cycle 5)?
**A.** The value was 0.1 (111.5) kg/L.

**Q.** What about the “t max, median (range)” value ([1]; Day 1 of cycle 5) of the same compound?
**A.** Its value is 2.00 (0–8.12) h.

**Q.** What about the “AUC ratio (90% CI)” value [1] of the same compound?
**A.** Its value is 0.61 (0.41–0.92).

**Q.** What about the “C max ratio (90% CI)” value [1] of the same compound?
**A.** The value was 0.58 (0.41–0.82).

**Q.** What about the “C trough ratio (90% CI)” value [1] of the same compound?
**A.** The value was 0.54 (0.36–0.81).

**Q.** With `COc1c(N2C[C@@H]3CCCN[C@@H]3C2)c(F)cc2c(=O)c(C(=O)O)cn(C3CC3)c12` [Moxifloxacin] as the compound, how does the “Increase in QT/QTc interval” value [2] read?
**A.** Its value is 5 to 10 ms.

**Q.** What about the “Mean (SD) change from baseline in QT” value [3] of the same compound?
**A.** Its value is 5.7 (24.3) ms.

**Q.** What about the “Mean (SD) change from baseline in QTcB” value [3] of the same compound?
**A.** Its value is 4.4 (12.9) ms.

**Q.** What about the “Mean (SD) change from baseline in QTcF” value [3] of the same compound?
**A.** The value was 4.9 (13.7) ms.

**Q.** Which results are given for `CCN(CC)CCNC(=O)c1c(C)[nH]c(/C=C2\C(=O)Nc3ccc(F)cc32)c1C` [sunitinib]?
**A.** Patients with declines to <50 LVEF(%) ([4]; after 1 cycle (6 weeks)): 12%; Patients with declines to <50 LVEF(%) ([4]; after 1 year): 10%; Mean change in LVEF(%) ([4]; after 2 cycles): −2.2 LVEF(%); Patients with declines to <50 LVEF(%) ([4]; after 2 years): 5%; Mean change in LVEF(%) ([4]; after 4 cycles): −5.1 LVEF(%); Incidence of ≥10 LVEF(%) reduction ([4]; observational study by Schmidinger et al.): 14%

**Q.** With `NC(=O)c1cc(Oc2ccc(NC(=O)Nc3ccc(Cl)c(C(F)(F)F)c3)cc2)ccn1` [BAY 43-9007] as the compound, how does the “AUC, geometric mean (% CV)” value ([1]; Day 1 of cycle 2) read?
**A.** The value was 2.0 (59.1) mg h/L.

**Q.** What about the “AUC, geometric mean (% CV)” value ([1]; Day 1 of cycle 5) of the same compound?
**A.** Its value is 1.1 (74.0) mg h/L.

**Q.** What about the “AUCnorm, geometric mean (% CV)” value ([1]; Day 1 of cycle 2) of the same compound?
**A.** The value was 0.4 (62.8) kg h/L.

**Q.** And the “C max, geometric mean (% CV)” value ([1]; Day 1 of cycle 2)?
**A.** The value was 0.2 (73.4) mg/L.

**Q.** And the “C max,norm, geometric mean (% CV)” value ([1]; Day 1 of cycle 2)?
**A.** The value was 0.1 (75.2) kg/L.

**Q.** What about the “C trough, geometric mean (% CV)” value ([1]; Day 1 of cycle 2) of the same compound?
**A.** Its value is 0.2 (82.3) mg/L.

**Q.** And the “C trough,norm, geometric mean (% CV)” value ([1]; Day 1 of cycle 2)?
**A.** The value was <0.1 (85.0) kg/L.

**Q.** What about the “t max, median (range)” value ([1]; Day 1 of cycle 2) of the same compound?
**A.** The value was 1.00 (0–12.00) h.

**Q.** And the “AUCnorm, geometric mean (% CV)” value ([1]; Day 1 of cycle 5)?
**A.** The value was 0.2 (80.9) kg h/L.

**Q.** What about the “C max, geometric mean (% CV)” value ([1]; Day 1 of cycle 5) of the same compound?
**A.** The value was 0.1 (75.5) mg/L.

**Q.** And the “C max,norm, geometric mean (% CV)” value ([1]; Day 1 of cycle 5)?
**A.** The value was <0.1 (78.2) kg/L.

**Q.** And the “C trough, geometric mean (% CV)” value ([1]; Day 1 of cycle 5)?
**A.** Its value is 0.1 (82.4) mg/L.

**Q.** And the “C trough,norm, geometric mean (% CV)” value ([1]; Day 1 of cycle 5)?
**A.** The value was <0.1 (84.8) kg/L.

**Q.** And the “t max, median (range)” value ([1]; Day 1 of cycle 5)?
**A.** The value was 2.00 (0–12.00) h.

**Q.** What about the “AUC ratio (90% CI)” value [1] of the same compound?
**A.** The value was 0.57 (0.41–0.81).

**Q.** And the “C max ratio (90% CI)” value [1]?
**A.** Its value is 0.51 (0.38–0.68).

**Q.** What about the “C trough ratio (90% CI)” value [1] of the same compound?
**A.** Its value is 0.52 (0.38–0.70).

**Q.** What does the source list for `NC(=O)c1cc(Oc2ccc(NC(=O)Nc3ccc(Cl)c(C(F)(F)F)c3)cc2)cc[n+]1[O-]` [BAY 68-7769]?
**A.** AUC, geometric mean (% CV) ([1]; Day 1 of cycle 2): 2.8 (92.3) mg h/L; AUC, geometric mean (% CV) ([1]; Day 1 of cycle 5): 1.4 (129.3) mg h/L; AUCnorm, geometric mean (% CV) ([1]; Day 1 of cycle 2): 0.5 (91.4) kg h/L; C max, geometric mean (% CV) ([1]; Day 1 of cycle 2): 0.3 (101.6) mg/L; C max,norm, geometric mean (% CV) ([1]; Day 1 of cycle 2): 0.1 (99.6) kg/L; C trough, geometric mean (% CV) ([1]; Day 1 of cycle 2): 0.3 (114.5) mg/L; C trough,norm, geometric mean (% CV) ([1]; Day 1 of cycle 2): 0.1 (113.5) kg/L; t max, median (range) ([1]; Day 1 of cycle 2): 2.00 (0–12.00) h; AUCnorm, geometric mean (% CV) ([1]; Day 1 of cycle 5): 0.3 (128.1) kg h/L; C max, geometric mean (% CV) ([1]; Day 1 of cycle 5): 0.2 (127.2) mg/L; C max,norm, geometric mean (% CV) ([1]; Day 1 of cycle 5): <0.1 (123.6) kg/L; C trough, geometric mean (% CV) ([1]; Day 1 of cycle 5): 0.1 (127.8) mg/L; C trough,norm, geometric mean (% CV) ([1]; Day 1 of cycle 5): <0.1 (124.7) kg/L; t max, median (range) ([1]; Day 1 of cycle 5): 2.00 (0–8.05) h; AUC ratio (90% CI) [1]: 0.50 (0.28–0.89); C max ratio (90% CI) [1]: 0.47 (0.28–0.80); C trough ratio (90% CI) [1]: 0.49 (0.29–0.83)
